The subject of one data set is SK-BR-3. Briefly: cells. Conditions: Homo sapiens, SK-BR-3, 48 h.
The nature of data set [1]: Solubility of the compound. Format: physicochemical.

The structures appear in SMILES notation. Bounds are passed on as bounds.

Description for SK-BR-3: Cytotoxicity against human SK-BR-3 cells after 48 hrs by MTT assay

With `COc1ccc(CC(=O)Nc2ccc(N(C)S(C)(=O)=O)c(OCc3cc(C)ccc3C)c2)cc1OC`, the IC50 (usually the point on the concentration scale where inhibition reaches its midpoint) with SK-BR-3 worked out at 34 µM.

In the case of `Cc1ccc(C)c(COc2cc(NC(=O)Cc3ccccc3)ccc2N(C)S(C)(=O)=O)c1`, in the data set on SK-BR-3, the IC50 is over 100 µM.

As to `CCCCCCCCCCCCCCCC(=O)Nc1ccc(N(C)S(C)(=O)=O)c(OCc2cc(C)ccc2C)c1`, the solubility entry in data set [1] is given as “Insoluble”.
